From US20110112100A1, “Hepatitis C Virus Inhibitors” (priority 2009, published 2011) come the findings set out here.

Each structure is given as a SMILES string. Some results are limits rather than exact numbers.

Data set [1] concerns 1a-H77 replicon cells. The data set can be described thus: HCV 1a replicon inhibitory activity (Renilla luciferase). The class given is cell-based, hepatitis C virus. Particulars: Hepatitis C virus; geometric mean, 95% confidence intervals in parentheses; 48 hours; medium with 10% FCS; read-out: IC50 value (95% Confidence Intervals) pM Replicon 1A assay. An outline of the steps:
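Replicon cells in DMEM + 10% FCS incubated 48 hours at 37° C., 5% CO2 with 1-in-3 serial dilutions of compound prepared in DMSO. Replication read as Renilla luciferase luminescence after lysis. EC50 taken from log concentration-response curves.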

For data set [2], the system named is 1b (con1) replicon cells. The data set is described as follows: HCV 1b replicon inhibitory activity (luciferase, Britelite Plus). Type of data set: cell-based, hepatitis C virus. The following applies: Hepatitis C virus; geometric mean, 95% confidence intervals in parentheses; 48 hours; medium with 10% FCS; read-out: IC50 value (95% Confidence Intervals) pM Replicon 1B assay. In short, it runs like this:
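1b (con1) luciferase replicon cells in DMEM + 10% FCS were exposed to 1-in-3 DMSO compound dilutions for 48 h at 37° C, 5% CO2. Luminescence was read 1-15 min after Britelite Plus addition; EC50 came from log concentration-response curves.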
For orientation: Replicon systems follow genome replication, usually without infectious particles.

A short description of data set [3]: Plasma protein binding, Rapid Equilibrium Dialysis. The class given is in vitro ADME. The following applies: human plasma proteins. The method, then:
Plasma binding free fractions (fu) were determined using a proprietary validated Rapid Equilibrium Dialysis (RED) device (Thermofisher). The analyte was spiked to a concentration of 2 μM in pre-prepared male CD rat plasma and 220 μl aliquots (n=4) were loaded into a RED device. The samples were dialysed vs. 350 μl of dulbeccos phosphate buffered saline (dPBS) for 4 h at 37° C. in a CO2 incubator in order to reach equilibrium. After 4 hours, 45 μl buffer and 15 μl plasma aliquots were taken and added to a 200 μl 384-well polypropylene plate. Respective volumes of control buffer were added to the plasma or control plasma was added to the buffer samples to give an identical matrix between samples. The samples were then crashed in 120 μl of acetonitrile and analysed via LC-MS/MS.
For highly bound compounds in the potency assay, which includes 10% foetal calf serum, measured potencies may not reflect real intrinsic potency due to a significant degree of compound binding.

Data set [4] in a line: Compound induced cytotoxicity in HCV replicon cell lines (WST-1 reagent). Particulars: human, 1b (con1) HCV replicon cells; WST-1, 48 hours; in 1 experiment. The class given is cell-based.

`COC(=O)N[C@H](C(=O)N1CCC[C@H]1c1ncc(-c2ccc(-c3ccc4cc(-c5cnc([C@@H]6CCCN6C(=O)[C@@H](NC(=O)OC)C(C)C)[nH]5)ccc4c3)cc2)[nH]1)C(C)C` [Example 2, Methyl {(2S)-1-[(2S)-2-{5-[6-(4-{2-[(2S)-1-{(2S)-2-[(methoxycarbonyl)amino]-3-methyl-butanoyl}pyrrolidin-2-yl]-1H-imidazol-4-yl}phenyl)naphthalen-2-yl]-1H-imidazol-2-yl}pyrrolidin-1-yl]-3-methyl-1-oxobutan-2-yl}carbamate]: the IC50 (in general, the concentration that gives 50% inhibition) was 22.3 pM in data set [1] and 2.37 pM in data set [2]. For the same compound, in data set [3], the fraction unbound (usually the share of the substance not bound to proteins or other matrix) at 4 h, 2 µM is 0.001.
In the case of `COC(=O)N[C@H](C(=O)N1CCC[C@H]1c1nc(-c2ccc3nc(-c4ccc(-c5cnc([C@@H]6CCCN6C(=O)[C@@H](NC(=O)OC)C(C)C)[nH]5)cc4)ccc3c2)c[nH]1)C(C)C` [Example 3, [(S)-1-((S)-2-{4-[2-(4-{2-[(S)-1-((S)-2-Methoxycarbonylamino-3-methyl-butyryl)-pyrrolidin-2-yl]-3H-imidazol-4-yl}-phenyl)-quinolin-6-yl]-1H-imidazol-2-yl}-pyrrolidine-1-carbonyl)-2-methyl-propyl]-carbamic acid methyl ester], the values for the IC50 in data set [1] and in data set [2] were 74.6 pM and 9.31 pM, respectively. For the same compound, the unbound share (fraction unbound) at 4 h, 2 µM in data set [3] was less than 0.0015.
In the case of `COC(=O)N[C@H](C(=O)N1CCC[C@H]1c1ncc(-c2ccc(-c3ncc4cc(-c5cnc([C@@H]6CCCN6C(=O)[C@@H](NC(=O)OC)C(C)C)[nH]5)ccc4n3)cc2)[nH]1)C(C)C` [Example 1], the IC50 in data set [1] came out at 36 pM; in data set [2] it was 5.89 pM. For the same compound, the CC50 (as a rule, the concentration at which the toxic effect on the cells reaches its halfway point) at 48 h in data set [4] is greater than 2000 nM. The fraction unbound at 4 h, 2 µM in data set [3] is 0.0015.
